The results in this text go back to patent US11718618B2, “Substituted pyrido[2,1-a]isoquinolines as VMAT2 inhibitors” (priority 2021, dated 2023).

The experiment has as its target human VMAT2 (Homo sapiens (Human), UniProt Q05940). As to the kind of experiment: VMAT2 radioligand binding, 3H-dihydrotetrabenazine competition on human platelet homogenate. Conditions: 10 nM 3H-dihydrotetrabenazine, human platelet homogenate, 25° C., 90 minutes; read-out: VMAT2 Ki. As for the experimental part:
Examples of techniques for determining the capability of a compound to inhibit VMAT2 are provided below. The procedure was adapted from that described previously (see, e.g., Near, (1986), Mol. Pharmacol. 30: 252-57; Teng, et al., J. Neurochem. 71, 258-65, 1998). Homogenates from human platelets were prepared by homogenization and then washed by centrifugation as described previously (see, e.g., Hoare et al., (2003) Peptides 24:1881-97).
The human VMAT2 Ki values for the compounds listed in Table 15A and Table 15B were determined using the following procedures. Compound dilution series in DMSO were generated from either powder stocks by hand, or from DMSO stocks using serial dilution on a Vantage (Hamilton), or direct dilution using an Echo 655 (Beckman). In a total volume of 0.145 to 0.150 mL in low-binding 96-well plates (Corning #3605), twelve concentrations of test compound were competed against 10 nM ^3H-dihydrotetrabenezine (American Radiolabeled Chemicals) on human platelet homogenate (30 μg membrane protein per well) in VMAT2 binding buffer (Dulbecco's phosphate buffered saline, 1 mM EDTA, pH 7.4). Following incubation at 25° C. for 90 minutes, bound radioligand was collected by rapid filtration onto either GF/B or GF/C glass fiber filters, pretreated with 0.100 polyethylenimine, using either a Unifilter-96 Harvester (PerkinElmer) or Microlab Star (Hamilton). Following harvesting the filter plates were washed with 0.8 mL VMAT2 binding buffer, and bound radioligand was quantified by scintillation counting using a Topcount NXT or Microplate Counter Microbeta (PerkinElmer).

human VMAT2, sequence (Q05940 whole entry): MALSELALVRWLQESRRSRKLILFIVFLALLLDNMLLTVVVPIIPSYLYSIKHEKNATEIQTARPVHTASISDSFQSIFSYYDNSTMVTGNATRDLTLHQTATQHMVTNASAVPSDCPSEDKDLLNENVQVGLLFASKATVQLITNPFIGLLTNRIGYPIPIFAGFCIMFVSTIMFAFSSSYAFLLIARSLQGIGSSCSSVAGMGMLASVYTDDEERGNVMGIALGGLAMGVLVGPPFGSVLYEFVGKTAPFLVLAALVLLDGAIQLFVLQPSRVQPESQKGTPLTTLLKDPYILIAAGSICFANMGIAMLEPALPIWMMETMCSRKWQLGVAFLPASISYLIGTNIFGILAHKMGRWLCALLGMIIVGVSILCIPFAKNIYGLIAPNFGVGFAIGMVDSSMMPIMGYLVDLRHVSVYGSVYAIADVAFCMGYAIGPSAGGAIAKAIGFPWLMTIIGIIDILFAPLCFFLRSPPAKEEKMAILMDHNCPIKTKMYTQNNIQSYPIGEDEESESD

As a reminder, the Ki is a dissociation constant, usually derived from enzyme kinetics or from competition with a known ligand. With `CNC(=O)COc1cc2c(cc1OC)[C@H]1C[C@@H](O)[C@H](CC(C)(C)C)CN1CC2` [Compound 4-35, 2-{[(2R,3R,11bR)-3-(2,2-dimethylpropyl)-2-hydroxy-10-methoxy-1H,2H,3H,4H,6H,7H,11bH-pyrido[2,1-a]isoquinolin-9-yl]oxy}-N-methylacetamide], the Ki was > 10000 nM.

For the compound `COc1cc2c(cc1OCC(=O)N(C)C)CCN1C[C@@H](CC(C)(C)C)[C@H](O)C[C@H]21` [Compound 4-33, 2-{[(2R,3R,11bR)-3-(2,2-dimethylpropyl)-2-hydroxy-10-methoxy-1H,2H,3H,4H,6H,7H,11bH-pyrido[2,1-a]isoquinolin-9-yl]oxy}-N,N-dimethylacetamide], the Ki was > 10000 nM.

`COc1cc2c(cc1OCC(C)(F)F)CCN1C[C@H](CC(C)(C)C)[C@@H](O)C[C@@H]21` [Compound 4-7, (2S,3S,11bS)-9-(2,2-difluoropropoxy)-3-(2,2-dimethylpropyl)-10-methoxy-1H,2H,3H,4H,6H,7H,11bH-pyrido[2,1-a]isoquinolin-2-ol]: the Ki stood at 539 nM.

As for `COc1cc2c(cc1OCC(F)(F)F)CCN1C[C@H](CC(C)(C)C)[C@H](O)C[C@@H]21` [Compound 4-4, (2R,3S,11bS)-3-(2,2-dimethylpropyl)-10-methoxy-9-(2,2,2-trifluoroethoxy)-1H,2H,3H,4H,6H,7H,11bH-pyrido[2,1-a]isoquinolin-2-ol], the inhibition constant Ki was 170 nM.

For the compound `COc1cc2c(cc1OCCOC1COC1)CCN1C[C@@H](CC(C)(C)C)[C@H](O)C[C@H]21` [Compound 4-20, (2R,3R,11bR)-3-(2,2-dimethylpropyl)-10-methoxy-9-[2-(oxetan-3-yloxy)ethoxy]-1H,2H,3H,4H,6H,7H,11bH-pyrido[2,1-a]isoquinolin-2-ol], the Ki worked out at 336 nM.

Consider `COc1cc2c(cc1OCC1CCS(=O)(=O)CC1)CCN1C[C@@H](CC(C)(C)C)[C@H](O)C[C@H]21` [Compound 4-97, 4-({[(2R,3R,11bR)-3-(2,2-dimethylpropyl)-2-hydroxy-10-methoxy-1H,2H,3H,4H,6H,7H,11bH-pyrido[2,1-a]isoquinolin-9-yl]oxy}methyl)-1λ^6-thiane-1,1-dione], for which the Ki is > 10000 nM.

Regarding `COC[C@H](O)COc1cc2c(cc1OC)[C@H]1C[C@@H](O)[C@H](CC(C)(C)C)CN1CC2` [Compound 4-48, (2R,3R,11bR)-3-(2,2-dimethylpropyl)-9-[(2S)-2-hydroxy-3-methoxypropoxy]-10-methoxy-1H,2H,3H,4H,6H,7H,11bH-pyrido[2,1-a]isoquinolin-2-ol], the Ki was found to be 313 nM.

For the compound `COc1cc2c(cc1OC1CCN(CC(F)(F)F)C1=O)CCN1C[C@@H](CC(C)(C)C)[C@H](O)C[C@H]21` (stereo partly drawn) [Compound 4-87, 3-{[(2R,3R,11bR)-3-(2,2-dimethylpropyl)-2-hydroxy-10-methoxy-1H,2H,3H,4H,6H,7H,11bH-pyrido[2,1-a]isoquinolin-9-yl]oxy}-1-(2,2,2-trifluoroethyl)pyrrolidin-2-one], the Ki amounted to 650 nM.

For the compound `COc1cc2c(cc1OCC1(C(F)(F)F)CCCC1)CCN1C[C@@H](CC(C)(C)C)[C@H](O)C[C@H]21` [Compound 4-80, (2R,3R,11bR)-3-(2,2-dimethylpropyl)-10-methoxy-9-{[1-(trifluoromethyl)cyclo-pentyl]methoxy}-1H,2H,3H,4H,6H,7H,11bH-pyrido[2,1-a]isoquinolin-2-ol], the Ki amounted to 133 nM.

As to `COc1cc2c(cc1OCc1ncno1)CCN1C[C@@H](CC(C)(C)C)[C@H](O)C[C@H]21` [Compound 4-95, (2R,3R,11bR)-3-(2,2-dimethylpropyl)-10-methoxy-9-(1,2,4-oxadiazol-5-ylmethoxy)-1H,2H,3H,4H,6H,7H,11bH-pyrido[2,1-a]isoquinolin-2-ol], the Ki is > 10000 nM.

On to `COc1cc2c(cc1OC[C@@H]1CCO1)CCN1C[C@@H](CC(C)(C)C)[C@H](O)C[C@H]21` [Compound 4-21, (2R,3R,11bR)-3-(2,2-dimethylpropyl)-10-methoxy-9-[(2S)-oxetan-2-ylmethoxy]-1H,2H,3H,4H,6H,7H,11bH-pyrido[2,1-a]isoquinolin-2-ol], for which the Ki worked out at 28 nM.

For the compound `COc1cc2c(cc1OCCC(F)(F)F)CCN1C[C@H](CC(C)(C)C)[C@H](O)C[C@@H]21` [Compound 4-5, (2R,3S,11bS)-3-(2,2-dimethylpropyl)-10-methoxy-9-(3,3,3-trifluoropropoxy)-1H,2H,3H,4H,6H,7H,11bH-pyrido[2,1-a]isoquinolin-2-ol], the inhibitory constant (Ki) is 135 nM.

In the case of `COc1cc2c(cc1OC)[C@@H]1C[C@@H](O)[C@@H](CC(C)(C)C)CN1CC2` [Compound 5-4, (2R,3S,11bS)-3-(2,2-dimethylpropyl)-9,10-dimethoxy-1H,2H,3H,4H,6H,7H,11bH-pyrido[2,1-a]isoquinolin-2-ol], the inhibitory constant (Ki) was > 10000 nM.

Consider `COc1cc2c(cc1OCc1ccc(C(F)(F)F)cc1)CCN1C[C@@H](CC(C)(C)C)[C@H](O)C[C@H]21` [Compound 4-81, (2R,3R,11bR)-3-(2,2-dimethylpropyl)-10-methoxy-9-{[4-(trifluoro-methyl)phenyl]methoxy}-1H,2H,3H,4H,6H,7H,11bH-pyrido[2,1-a]isoquinolin-2-ol], for which the inhibitory constant (Ki) is 177 nM.

For the compound `COc1cc2c(cc1OC(C)C(F)(F)F)CCN1C[C@@H](CC(C)(C)C)[C@H](O)C[C@H]21` (stereo partly drawn) [Compound 4-39, (2R,3R,11bR)-3-(2,2-dimethylpropyl)-10-methoxy-9-[(1,1,1-trifluoropropan-2-yl)oxy]-1H,2H,3H,4H,6H,7H,11bH-pyrido[2,1-a]isoquinolin-2-ol], the Ki amounted to 12 nM.

Take `COc1cc2c(cc1OCCCO)CCN1C[C@@H](CC(C)(C)C)[C@H](O)C[C@H]21` [Compound 4-89, (2R,3R,11bR)-3-(2,2-dimethylpropyl)-9-(3-hydroxypropoxy)-10-methoxy-1H,2H,3H,4H,6H,7H,11bH-pyrido[2,1-a]isoquinolin-2-ol]: the inhibition constant Ki is 140 nM.

As for `COc1cc2c(cc1OCC(F)F)CCN1C[C@H](CC(C)(C)C)[C@H](O)C[C@@H]21` [Compound 4-2, (2R,3S,11bS)-9-(2,2-difluoroethoxy)-3-(2,2-dimethylpropyl)-10-methoxy-1H,2H,3H,4H,6H,7H,11bH-pyrido[2,1-a]isoquinolin-2-ol], the Ki is 467 nM.

With `COc1cc2c(cc1OCC(F)(F)F)CCN1C[C@H](CC(C)(C)C)[C@@H](O)C[C@@H]21` [Compound 4-8, (2S,3S,11bS)-3-(2,2-dimethylpropyl)-10-methoxy-9-(2,2,2-trifluoroethoxy)-1H,2H,3H,4H,6H,7H,11bH-pyrido[2,1-a]isoquinolin-2-ol], the inhibitory constant (Ki) stood at 597 nM.

In the case of `COc1cc2c(cc1OC[C@H](O)CO)CCN1C[C@@H](CC(C)(C)C)[C@H](O)C[C@H]21` [Compound 4-83, (2R)-3-{[(2R,3R,11bR)-3-(2,2-dimethylpropyl)-2-hydroxy-10-methoxy-1H,2H,3H,4H,6H,7H,11bH-pyrido[2,1-a]isoquinolin-9-yl]oxy}propane-1,2-diol], the Ki was found to be 207 nM.

Turning to `COc1cc2c(cc1OCS(=O)(=O)N(C)C)CCN1C[C@@H](CC(C)(C)C)[C@H](O)C[C@H]21` [Compound 4-86, 1-{[(2R,3R,11bR)-3-(2,2-dimethylpropyl)-2-hydroxy-10-methoxy-1H,2H,3H,4H,6H,7H,11bH-pyrido[2,1-a]isoquinolin-9-yl]oxy}-N,N-dimethylmethanesulfonamide], the inhibition constant (Ki) came to 287 nM.
